Tests used:
[1] = biological target: T1, cloned human mu opioid receptor (Homo sapiens, UniProt P35372); assay: GTP-γ-S binding assay, antagonist mode (mu); format: biochemical; conditions: functional antagonist potency vs DAMGO 1 micromolar; membranes, [35S]GTP-γ-S SPA; Cheng-Prusoff
T1 construct: expressed in transfected cells
Method: (§1) The functional antagonist potency (Kb) of the sample compounds was determined using the GTPγS binding assay. GTPgS-based functional assays provide an in vitro measure of the activity of opioid agonists and antagonists. Opioid reference compounds or test compound are incubated with membrane homogenate from cells expressing the cloned human mu, kappa or delta opioid receptor and radiolabeled [35S]GTPgS. If the compound activates the opioid receptor, an increase in the binding of radiolabeled GTPgS is observed. […] These tests provide an in vitro measurement of the activity of the compound at human opioid receptors.
(§2) An SPA-based GTP-γ-S assay format was developed based on previous opioid (Emmerson et al., J. Pharm Exp Ther 278, 1121, 1996; Horng et al., Society for Neuroscience Abstracts, 434.6, 2000) and muscarinic (DeLapp et al., JPET 289, 946, 1999) assay formats. Membranes were resuspended in 20 mM HEPES, 100 mM NaCl, 5 mM MgCl2, 1 mM DTT, and 1 mM EDTA. Fifty (50) […] of GTP-γ-[35S], compound, membrane suspension (20 microgram/well), and wheat germ agglutinin coated SPA beads (1 mg/well) were added to clear bottom 96 well assay plates. GDP ([…]) was added to the membrane solution prior to addition to the assay plates. Plates were sealed and incubated for four hours at room temperature then placed in a refrigerator overnight to allow the beads to settle. Signal stability at 4° C. was determined to be >60 hours. Plates were warmed to room temperature and counted in a Wallac Microbeta scintillation counter. For antagonist assays, specific agonists were added at the following concentrations: (MOR) DAMGO 1 micromolar, (DOR) DPDPE 30 nM, (KOR) U69593 300 nM. Kb's were determined by Cheng-Prusoff equation (see Cheng and Prusoff, Biochem. Pharmacol. 22, 3099, 1973).

[2] = biological target: T2, cloned human delta opioid receptor (Homo sapiens, UniProt P41143); assay: GTP-γ-S binding assay, antagonist mode (delta); format: biochemical; conditions: functional antagonist potency vs DPDPE 30 nM; membranes, [35S]GTP-γ-S SPA; Cheng-Prusoff
T2 construct: expressed in transfected cells
T2 sequence (P41143 whole entry): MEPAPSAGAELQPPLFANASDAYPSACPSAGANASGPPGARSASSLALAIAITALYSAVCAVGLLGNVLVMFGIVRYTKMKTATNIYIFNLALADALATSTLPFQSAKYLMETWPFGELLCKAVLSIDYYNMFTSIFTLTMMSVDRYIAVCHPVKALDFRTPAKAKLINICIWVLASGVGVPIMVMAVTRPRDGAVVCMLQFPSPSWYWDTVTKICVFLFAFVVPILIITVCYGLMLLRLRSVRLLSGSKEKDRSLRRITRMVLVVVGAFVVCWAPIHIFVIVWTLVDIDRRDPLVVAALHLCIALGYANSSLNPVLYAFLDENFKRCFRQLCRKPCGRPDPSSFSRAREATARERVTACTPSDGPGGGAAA
Method: as §1, §2

T1 sequence (P35372 whole entry): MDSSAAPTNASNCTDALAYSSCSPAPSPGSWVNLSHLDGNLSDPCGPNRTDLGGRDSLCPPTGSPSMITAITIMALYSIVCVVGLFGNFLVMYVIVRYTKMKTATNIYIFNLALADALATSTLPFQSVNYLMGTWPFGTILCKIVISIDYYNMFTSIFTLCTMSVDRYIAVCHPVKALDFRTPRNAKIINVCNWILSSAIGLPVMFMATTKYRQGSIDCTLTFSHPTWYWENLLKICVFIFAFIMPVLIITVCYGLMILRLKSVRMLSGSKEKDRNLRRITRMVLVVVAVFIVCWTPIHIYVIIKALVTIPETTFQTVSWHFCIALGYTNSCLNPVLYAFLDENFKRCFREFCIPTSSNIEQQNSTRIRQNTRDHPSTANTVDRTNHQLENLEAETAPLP

Row | SMILES | Kb [1] | Kb [2]
1 | CC(C)CCNCc1ccc(COc2ccc(C(N)=O)cc2)cc1 [Example 4, 4-{4-[(3-Methyl-butylamino)-methyl]-benzyloxy}-benzamide] | > 23 nM | > 67 nM
2 | CC(C)CCNCc1ccc(OCc2cccc(C(N)=O)c2)cc1 [Example 1, 3-{4-[(3-Methyl-butylamino)-methyl]-phenoxymethyl}-benzamide] | > 21 nM | > 41 nM
3 | CC(C)CCNCc1ccc(OCCc2ccc(C(N)=O)cc2)cc1 [Example 5, 4-(2-{4-[(3-Methyl-butylamino)-methyl]-phenoxy}-ethyl)-benzamide] | > 23 nM | > 67 nM
4 | CC(C)CCNCc1ccc(OCc2ccc(C(N)=O)cc2)cc1 [Example 2, 4-{4-[(3-Methyl-butylamino)-methyl]-phenoxymethyl}-benzamide] | 62.9 nM | 337 nM
